The melting point is the temperature, or range, at which the solid turns liquid.

The subject of data set [1] is HCV. Nature of the data set: HCV-infected human liver slice assay (HCV RNA in culture medium). In kind it is cell-based. The following applies: for Log10 decrease in viral RNA from control at 48-72 h: HCV RNA in culture medium of HCV-infected human liver slices; for HCV RNA levels in the liver slice culture media versus control, untreated slices: in words, treatment for 72 h. On the procedure: Inhibition of HCV replication in human liver tissue was evaluated using the following assay.
Liver from a brain-dead HCV antibody-positive human patient was perfused with ice-cold Viaspan (Dupont Pharmaceutical) preservation solution and received on ice in Viaspan.
Precision-cut liver slices of ˜200-250 μm thickness and […] diameter were prepared and cultured in Waymouth's cell culture medium (Gibco, Inc.) that was supplemented with 10% fetal bovine serum and 10 mL/L Fungi-Bact at 37° C., and gassed with carbogen (95% O2, 5% CO2) at 0.75 liters/min. Tissue slices were maintained in culture for 72 h. Cell culture medium containing test compound in solution was changed on a daily basis.
At appropriate times of liver slice incubation, liver slices and medium were collected for analysis of HCV RNA (tissue and medium) and nucleotide levels (NTP). All collected media and tissue slices were maintained in liquid N2 until analysis.
Medium and tissue samples were analyzed for HCV RNA levels according to published procedures (Bonacini et. al., 1999) which utilize an automated, multicycle, polymerase chain reaction (PCR)-based technique. This assay has a lower limit of detection for HCV RNA of 100 viral copies/ml.

On the set-up of data set [2]: species or system C57BL/6 mice. The settings on record: in vivo; for Liver NTP AUC: mouse. The protocol:
The liver specificity of the compound 19 prodrug was compared relative to the parent nucleoside, 2′-C-methylguanosine, and for compound 21.1 prodrug relative to its parent nucleoside, 2′-C-methyladenosine, by measuring the generation of NTP in the liver compared to nucleoside in the plasma.
Compound 19 or 2′-C-methylguanosine were administered intraperitoneally to C57BL/6 mice at a dose of 30 mg/kg based on nucleoside equivalents (30 mg/kg 2′-C-methylguanosine and 53.27 mg/kg compound 19). Compound 21.1 or 2′-C-methyladenosine were administered intravenously to C57BL/6 mice at dose of about 5.5 mg/kg nucleoside equivalents (5.5 mg/kg 2′-C-methyladenosine and 10 mg/kg compound 21.1). Plasma concentrations of 2′-C-methylguanosine, compound 19, 2′-C-methyladenosine, and compound 21.1 were determined by HPLC-UV and the liver concentrations of the 5′-triphosphate of 2′-C-methylguanosine and 2′-C-methyladenosine were measured by LC-MS using the standard ion-pairing chromatography method for triphosphate as described in Example E. Conventional SAX HPLC-UV could not differentiate between endogenous GTP and 2′-C-methylguanosine triphosphate. Since an authentic standard of 2′-C-methylguanosine triphosphate was not available, the liver concentrations of the nucleotide were approximated as described in Example E.

The structures appear in SMILES notation. Entries after “also recorded” stand apart in the source; their conditions may differ. Structures can show the parent of a compound that is named as a salt.

Take `C[C@@]1(O)[C@H](O)[C@@H](CO[P@]2(=O)OCC[C@H](c3cccc(Cl)c3)O2)O[C@H]1n1cnc2c(=O)[nH]c(N)nc21` (relative stereo) [Compound 19, cis-5′-O-[4-(3-Chlorophenyl)-2-oxo-1,3,2-dioxaphosphorinan-2-yl]-2′-C-methyl-guanosine]: the “Log10 decrease in viral RNA from control at 48-72 h” value in data set [1] (0.25 μM compound) was found to be 1.27 Log10; in data set [1] (1 μM compound), 1.61 Log10; in data set [1] (2.5 μM compound), 1.70 Log10; in data set [1] (25 μM compound), 1.72 Log10. For the same compound, in data set [1], the “HCV RNA levels in the liver slice culture media versus control, untreated slices” value is “decreased; also recorded: more effective than treatment with the nucleoside”. Further, the “Liver Targeting Index (Liver/Plasma)” value in data set [2] (C57BL/6, mouse, ip, 30 mg/kg) is listed as 26.2. The “Prodrug Improvement (Fold)” value in data set [2] (C57BL/6, mouse, ip, 30 mg/kg) stood at 30 Fold.

Take `C[C@@]1(O)[C@H](O)[C@@H](CO)O[C@H]1n1cnc2c(N)ncnc21` [2′-C-methyladenosine, reference compound]: the “Plasma Nucleoside AUC” value in data set [2] (C57BL/6, mouse, iv, 5.5 mg/kg) was found to be 26.8 µM·h. Besides, the “Liver NTP AUC” value in data set [2] (iv, 5.5 mg/kg) was found to be 119 nmol·h/g.

For the compound `C[C@@]1(O)[C@H](O)[C@@H](CO)O[C@H]1n1cnc2c(=O)[nH]c(N)nc21` [2′-C-methylguanosine, reference compound], the figures for the “Log10 decrease in viral RNA from control at 48-72 h” value in data set [1] (0.25 μM compound), in data set [1] (2.5 μM compound) and in data set [1] (25 μM compound) were 0.51 Log10, 1.74 Log10 and 1.48 Log10, respectively. For the same compound, in data set [1], the “HCV RNA levels in the liver slice culture media versus control, untreated slices” value is “decreased”. For the same compound, the “Liver Targeting Index (Liver/Plasma)” value in data set [2] (C57BL/6, mouse, ip, 30 mg/kg) turned out to be 0.87.

For the compound `C[C@@]1(O)[C@H](O)[C@@H](COP2(=O)OCC[C@@H](c3cccc(Cl)c3)O2)O[C@H]1n1cnc2c(N)ncnc21` (stereo partly drawn) [Compound 21.1, cis-5′-O-[4-(S)-(3-chlorophenyl)-2-oxo-1,3,2-dioxaphosphorinan-2-yl]-2′-C-beta-methyl-adenosine trifluoroacetic acid salt], in data set [2] (iv, 5.5 mg/kg), the “Liver NTP AUC” value was 502 nmol·h/g.

Turning to `C[C@@]1(O)[C@H](O)[C@@H](COP2(=O)OCC[C@@H](c3cc(F)ccc3F)O2)O[C@H]1n1cnc2c(N)ncnc21` (stereo partly drawn) [Compound 21.3, cis-5′-O-[4-(2,5difluorophenyl)-2-oxo-1,3,2-dioxaphosphorinan-2-yl]-2′-C-beta-methyl-adenosine], the melting point was in the range of 75 to 78 °C.

With `C[C@@]1(O)[C@H](O)[C@@H](COP2(=O)OCC[C@@H](c3cc(F)cc(F)c3)O2)O[C@H]1n1cnc2c(N)ncnc21` (stereo partly drawn) [Compound 21.4, cis-5′-O-[4-(3,5-difluorophenyl)-2-oxo-1,3,2-dioxaphosphorinan-2-yl]-2′-C-beta-methyl-adenosine], the melting point lay in the range of 120 to 123 °C.

Compound `C[C@@]1(O)[C@H](O)[C@@H](COP2(=O)OCC[C@@H](c3cccc(Br)c3)O2)O[C@H]1n1cnc2c(N)ncnc21` (stereo partly drawn) [Compound 21.6, cis-5′-O-[4-(3-bromophenyl)-2-oxo-1,3,2-dioxaphosphorinan-2-yl]-2′-C-beta-methyl adenosine] gave a melting point of 108 to 110 °C.

The compound `C[C@@]1(O)[C@H](O)[C@@H](COP2(=O)OCC[C@@H](c3cccnc3)O2)O[C@H]1n1cnc2c(N)ncnc21` (stereo partly drawn) [Compound 21.9, cis-5′-O-[4-(pyridine-3-yl)-2-oxo-1,3,2-dioxaphosphorinan-2-yl]-2′-C-beta-methyl-adenosine] showed a melting point of 137 to 140 °C.

`CC(=O)O[C@@H]1[C@@H](COP2(=O)OCC[C@H](c3ccncc3)O2)O[C@@H](n2ccc3c(N)ncnc32)[C@]1(C)O` (stereo partly drawn) [Compound 22.1, 4-amino-7-(3′-acetyl-cis-5′-O-[4-(S)-(pyridin-4-yl)-2-oxo-1,3,2-dioxaphosphorinan-2-yl]-2′-C-methyl-beta-D-ribofuranosyl)-7H-pyrrolo[2,3-d]pyrimidine]: the melting point fell in the range of 182 to 185 °C.

`CC(=O)O[C@@H]1[C@@H](COP2(=O)OCC[C@H](c3cccc(Cl)c3)O2)O[C@@H](n2ccc3c(N)ncnc32)[C@]1(C)O` (stereo partly drawn) [Compound 22.2, 4-amino-7-(3′-acetyl-cis-5′-O-[4-(S)-(3-chlorophenyl)-2-oxo-1,3,2-dioxaphosphorinan-2-yl]-2′-C-methyl-beta-D-ribofuranosyl)-7H-pyrrolo[2,3-d]pyrimidine] came in with a melting point of 90 to 93 °C.

In the case of `C[C@@]12OC(=O)O[C@@H]1[C@@H](COP1(=O)OCC[C@H](c3cccc(Cl)c3)O1)O[C@H]2n1ccc2c(N)ncnc21` (stereo partly drawn) [Compound 23.1, 4-amino-7-(2′,3′-carbonyl-cis-5′-O-[4-(S)-(3-chlorophenyl)-2-oxo-4,3,2-dioxaphosphorinan-2-yl]-2′-C-methyl-beta-D-ribofuranosyl)-7H-pyrrolo[2,3-d]pyrimidine], the melting point was 127 to 130 °C.

In the case of `C[C@@]12OC(=O)O[C@@H]1[C@@H](COP1(=O)OCC[C@H](c3ccncc3)O1)O[C@H]2n1ccc2c(N)ncnc21` (stereo partly drawn) [Compound 23.2, 4-amino-7-(2′,3′-carbonyl-cis-5′-O-[4-(S)-(pyridin-4-yl)-2-oxo-1,3,2-dioxaphosphorinan-2-yl]-2′-C-methyl-beta-D-ribofuranosyl)-7H-pyrrolo[2,3-d]pyrimidine], the melting point was in the range of 192 to 195 °C.

`C[C@@]1(O)[C@H](O)[C@@H](CO)O[C@H]1n1ccc2c(N=[N+]=[N-])ncnc21` [Compound 25.1, 4-azido-7-(2′-C-methyl-beta-D-ribofuranosyl)-7H-pyrrolo[2,3-d]pyrimidine] gave a melting point of 179 to 180 °C.

Source of the values: patent publication US20050182252A1, “Novel 2'-C-methyl nucleoside derivatives” (priority 2004, published 2005).
